Source: patent publication US8030506B2, “Tumor selective and biodegradable cyclotriphosphazene-platinum(II) conjugate anticancer agent, and preparation method thereof” (Nanohybrid Co., Ltd, priority 2007, dated 2011)

Assays:
Assay in all cases: In vitro cytotoxicity against human cancer cell lines
Details in all cases: read-out: In vitro cytotoxicities, IC50
[1] = tested on: MCF (breast cancer)
[2] = tested on: SK-OV3 (ovarian cancer)
[3] = tested on: A-431 (vulvar cancer)
[4] = tested on: MES-SA (uterine cancer)

## N.N.O=C([O-])C1(C(=O)[O-])CCC1.[Pt+2] [Carboplatin, carboplatin]
[1]
  IC50: 48 µM
[2]
  IC50: 76.5 µM
[3]
  IC50: 45.9 µM
[4]
  IC50: 48 µM
